The source of these data is publication PMC10784468 (Nature Communications, 2024).

Positions of bridges follow the written chain, without caps; N, C: chain ends. Residues, ends and D or L forms follow the SMILES beside them. *: point of attachment. X1 = O=C(O)c1ccc(-c2c3nc(c(-c4ccc(C(=O)O)cc4)c4ccc([nH]4)c(-c4ccc(C(=O)*)cc4)c4nc(c(-c5ccc(C(=O)O)cc5)c5ccc2[nH]5)C=C4)C=C3)cc1; X2 = O=C(O)C/C(=C/C(=O)*)C(=O)O

A short description of series [1]: Particle size by DLS. It is filed as physicochemical. How it is done:
Nano-ZS 3600 (Malvern Instruments, UK) was used to measure the size distribution of the peptide-porphyrin conjugate solutions. The conjugate solutions (40 μM) were incubated at pH 7.4 or pH 6.5 before measurements. An average value was determined by three repeated measurements at 25 °C for each sample. Besides, transmission electron microscopy (TEM, Tecnai G2 20 S-TWIN) was conducted to observe the morphology and diameters of conjugates in aqueous solution, The conjugates (50 μL, 40 μM) were kept in PB solution at pH 7.4 or pH 6.5, which were dropped on copper meshes. After 5 min, unnecessary liquid was removed and the uranyl acetate solution (10 μL) was dropped on this copper mesh to stain the samples for 10 min. Finally, the copper meshes were washed with deionized water, and dried at room temperature for observation.

Series [2] concerns EJ cells. The experiment in a line: Cellular imaging (uptake) by CLSM. Format: cell-based. The conditions noted are these: Cy7-labeled, 40 μM, 2 h. How it is done:
Initially, EJ cells (5 × 10^5) were cultured in confocal dish with a CO2 incubator overnight at 37 °C. Subsequently, the EJ cells were incubated with Cy labeled Gi-F-CAA (40 μM, pH = 7.4) and Cy labeled Gi-F-CAA (40 μM, pH = 6.5) for 2 h followed by washing with PBS for three times.

The subject of series [3] is EJ cells. As to the kind of experiment: Intracellular Fe2+ ions detection. It is filed as cell-based. The conditions noted are these: for intracellular Fe^2+ (FerroOrange fluorescence), pH 7.4: pH 7.4, 8 h. How it is done: Initially, EJ cells (5 × 10^5) were cultured in confocal dish with a CO2 incubator overnight at 37 °C. […] Afterwards, EJ cells were washed with PBS for 3 times and replaced with culture mediums.

In series [4] the test system is EJ tumor tissues. As to the kind of experiment: Tumor iron content detection (Prussian blue). It is filed as in vivo, BALB/c nude mice. Conditions: 8 mg/kg i.v. How it is done: EJ tumor tissues were collected under euthanasia at the end of treatment and washed with PBS for 3 times. Afterwards, the DAB-enhanced Prussian blue iron staining was performed with Wuhan Servicebio Technology Co., Ltd.

Series [5] concerns PTGS2. The experiment in a line: Tumor PTGS2 content detection. Format: in vivo, BALB/c nude mice. Conditions: EJ tumor tissues, 8 mg/kg i.v., versus PBS, Gi-F and Gi-F-SA. As to the method:
EJ tumor tissues were collected under euthanasia at the end of treatment and washed with PBS for 3 times. Afterwards, the immunofluorescence analyses of Prostaglandin-Endoperoxide Synthase 2 (PTGS2) expression were performed with Wuhan Servicebio Technology Co., Ltd.

Series [6] has as its system MCF-7/MDR xenograft tumors. The experiment in a line: In vivo antitumor evaluation in MCF-7/MDR xenografted model. The source says:
Female BALB/c nude mice (~8 weeks, 18 g) were subcutaneously inoculated with 5 × 10^6 MCF-7/MDR cells resuspended in Matrigel. […] Individual tumor volume and bodyweight of mouse after different treatment was collected at 2-days intervals for analysis. Mice were killed at 20 days post treatment unless endpoints were exceeded. Moreover, tumors from all groups were harvested under euthanasia and weighed for analysis at the end of treatment.

Series [7] concerns 786-O xenograft tumors. As to the kind of experiment: In vivo antitumor evaluation in large tumor model (786-O). Further details: species or system BALB/c nude mice. The conditions noted are these: six i.v. injections at 2-days intervals, Gi-F-CAA 8 mg/kg, Bevacizumab 5 mg/kg.
Series [8] addresses T1, GPX4 (Homo sapiens, UniProt P36969).
T1 sequence (P36969 1-197): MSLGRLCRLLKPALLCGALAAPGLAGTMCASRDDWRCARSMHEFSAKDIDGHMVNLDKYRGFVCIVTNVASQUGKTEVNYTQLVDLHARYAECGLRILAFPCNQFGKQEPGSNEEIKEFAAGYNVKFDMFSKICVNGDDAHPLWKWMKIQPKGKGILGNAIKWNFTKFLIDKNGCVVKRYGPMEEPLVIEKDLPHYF
As to the kind of experiment: Intracellular GPX4 activity detection. It is filed as cell-based. Further details: endogenous in cells; host or cells: EJ bladder cancer cells. As to the method: Initially, EJ cells (5 × 10^5) were cultured in 6-well plate with a CO2 incubator overnight at 37 °C. […] Next, EJ cells were collected and washed with PBS for 3 times. Afterwards, the cell lysates were collected by centrifugation at 5000 rpm for 10 min at 4 °C after ultrasonic lysis in an ice bath. Finally, the GPX4 activity were measured with a GPX Assay Kit based on the manufacturer’s instructions.

Where [9] appears, read: EJ cells, 8 h, pH 7.4, PBS group normalized as 1, #1.
Setting [10] is: EJ cells, 8 h, pH 7.4, PBS group normalized as 1, #2.
Setting [11] is: EJ cells, 8 h, pH 7.4, PBS group normalized as 1, #3.

On to `CC(C)C[C@H](NC(=O)c1ccc(-c2c3nc(c(-c4ccc(C(=O)O)cc4)c4ccc([nH]4)c(-c4ccc(C(=O)O)cc4)c4nc(c(-c5ccc(C(=O)O)cc5)c5ccc2[nH]5)C=C4)C=C3)cc1)C(=O)N[C@@H](CCCCNC(=O)/C=C(/CC(=O)O)C(=O)O)C(=O)N[C@@H](CC(C)C)C(=O)N[C@@H](CCCCN)C(=O)N[C@@H](CC(C)C)C(=O)N[C@@H](CCCCNC(=O)/C=C(/CC(=O)O)C(=O)O)C(=O)NCC(=O)N[C@@H](C)C(=O)N[C@H]1CSSC[C@@H](C(=O)N2CCC[C@H]2C(=O)N[C@H](C(=O)O)C(C)C)NC(=O)[C@@H]2CCCN2C(=O)[C@H](Cc2ccc(O)cc2)NC(=O)[C@H](CC(C)C)NC(=O)[C@@H]2CCCN2C(=O)[C@H](CC(C)C)NC(=O)[C@H](Cc2c[nH]c3ccccc23)NC(=O)[C@H](CC(N)=O)NC1=O` [Gi-F-CAA] (X1-LK(X2)LKLK(X2)GACNWLPLYPCPV-OH; disulfide 9-17; C-terminus assumed), for which the “particle size (DLS) after incubation at pH 6.5 for 1 h” value in series [1] (40 μM, PBS 0.01 M, pH 6.5, 1 h, 25 °C) worked out at 78 ± 11 nm. In series [1] (40 μM, PBS 0.01 M, pH 6.5, before incubation, 25 °C), the “particle size (DLS) before incubation” value is on record as 13 ± 3 nm. For the same compound, the “particle size change (DLS) at pH 7.4” value in series [1] (40 μM, PBS 0.01 M, pH 7.4) is given as “no obvious changes”. Also, in series [1] (pH 7.4, peer review response), the “size (DLS) at pH 7.4” value was “about 11 ± 2 nm”. Moreover, the “cellular uptake (CLSM) at pH 6.5” value in series [2] (pH 6.5) is recorded as “obvious fluorescence signal was observed in the cytoplasm”. Also, the “cellular uptake (CLSM) at pH 7.4” value in series [2] (pH 7.4) was “barely detected”. In addition, the “intracellular Fe^2+ (FerroOrange fluorescence), pH 6.5” value in series [3] (EJ cells, pH 6.5, 40 μM, 8 h) is “substantially enhanced fluorescence”. Also, the “intracellular Fe^2+ (FerroOrange fluorescence), pH 7.4” value in series [3] (EJ cells) is recorded as “no remarkable fluorescence”. For the same compound, the “Concentrations of Fe2+ ions” value in series [3] (pH=6.5, replicate #1) is on record as 22.485 ng/104cells; in series [3] (pH=6.5, replicate #2), 27.487 ng/104cells; in series [3] (pH=6.5, replicate #3), 29.009 ng/104cells; in series [3] (pH=7.4, replicate #1), 12.656 ng/104cells; in series [3] (pH=7.4, replicate #2), 15.918 ng/104cells; in series [3] (pH=7.4, replicate #3), 12.221 ng/104cells. In series [4], the “iron levels of tumor tissues versus other groups” value is “substantially higher”. The “PTGS2 levels of tumor tissues” value in series [5] is “elevation”. In addition, the “mean tumor volume at 20 days post injection” value in series [6] (MCF-7/MDR xenograft, six i.v. injections every 2 days, Gi-F-CAA 8 mg/kg, DOX and CPT 3 mg/kg, n = 6) is 623 mm^3. The TGI rate in series [6] (MCF-7/MDR xenograft, six i.v. injections, Gi-F-CAA 8 mg/kg, DOX and CPT 3 mg/kg, 20 days) turned out to be 66%. For the same compound, the Tumor weight was 0.59 g in series [6] (mice 1); 0.52 g in series [6] (mice 2); 0.51 g in series [6] (mice 3); 0.35 g in series [6] (mice 4); 0.37 g in series [6] (mice 5); 0.54 g in series [6] (mice 6). Further, in series [7], the “tumor volume course in large tumors (~500 mm^3)” value is “declining tendency for 10 days and maintained a long-termed tumor growth inhibition”. The “Relative activity of GPX4” value in series [8] (EJ cells, 8 h, pH 6.5, 40 μM, PBS group normalized as 1, #1) was 0.12; in series [8] (EJ cells, 8 h, pH 6.5, 40 μM, PBS group normalized as 1, #2), 0.09; in series [8] (EJ cells, 8 h, pH 6.5, 40 μM, PBS group normalized as 1, #3), 0.17; in series [8] (setting [9]), 0.62; in series [8] (setting [10]), 0.73; in series [8] (setting [11]), 0.69. The “Relative activity of GPX4” value in series [8] (pH=6.5, replicate #1) came to 0.21; in series [8] (pH=6.5, replicate #2) it was 0.24; in series [8] (pH=6.5, replicate #3) it was 0.19; in series [8] (pH=7.4, replicate #1), 0.76; in series [8] (pH=7.4, replicate #2) it was 0.63; in series [8] (pH=7.4, replicate #3) it was 0.6.
With “FeTCPP-LKLKLK(SA)GACNWLPLYPCPV (disulfide) [Gi-F-SA, control conjugate decorated with non-sensitive succinic anhydride (SA) moieties]”, the “intracellular Fe^2+ (FerroOrange fluorescence), pH 7.4” value in series [3] (EJ cells) is given as “no remarkable fluorescence”. The “Concentrations of Fe2+ ions” value in series [3] (pH=7.4, replicate #1) amounted to 13.222 ng/104cells; in series [3] (pH=7.4, replicate #2) it was 11.221 ng/104cells; in series [3] (pH=7.4, replicate #3), 12.7 ng/104cells. Moreover, the “Relative activity of GPX4” value in series [8] (setting [9]) amounted to 0.62; in series [8] (setting [10]), 0.59; in series [8] (setting [11]) it was 0.73; in series [8] (pH=7.4, replicate #1) it was 0.61; in series [8] (pH=7.4, replicate #2), 0.62; in series [8] (pH=7.4, replicate #3), 0.66.
As for “FeTCPP-LKLKLKGACNWLPLYPCPV (disulfide) [Gi-F]”, in series [1] (40 μM, PBS 0.01 M, pH 6.5, with GPX4, Supplementary Fig. 18), the “particle size (DLS) after incubation with GPX4” value was ~ 90 ± 9 nm.
